This note sets out measurements from ChEMBL document CHEMBL1152065, “Synthesis and anti-HIV activity of 9-[(2R-5R)-2,5-dihydro-5-(phosphonomethoxy)-2-furanyl]-2,6-diaminopurine” (Bioorg Med Chem Lett, 1992).

Several values for one entry are separate records, joined by “and”; a condition that tells them apart may be missing. Equal values may be shown once.

For series [1], the system named is MT4. Kind of series: Compound was evaluated for its ability to Inhibit HIV replication in MT-4 cells. It counts as functional, cell-based, Homo sapiens.
The nature of series [2]: Concentration of compound affecting viability of the uninfected cells by 50% when assayed in parallel with antiviral assay in MT-4 cells. The settings on record: human, uninfected MT-4 cells; read-out: TC50 (the source's name). The series is classed as cell-based, MT4.
Series [3] deals with MT4. Briefly: The compound was evaluated for its ability to Inhibit HIV replication in MT-4 cells. It counts as functional, cell-based. The conditions noted are these: Homo sapiens.

What is called IC50 is the midpoint of a concentration-inhibition curve. Consider `Nc1ncnc2c1ncn2[C@H]1C=C[C@@H](OCP(=O)(O)O)O1`, for which, in the series with MT4 [1] (Homo sapiens, MT4), the IC50 amounted to 4.3 µM. Besides, in series [2], the CC50 is above 100 µM.
The matching figures for `Nc1nc(N)c2ncn([C@H]3C=C[C@@H](OCP(=O)(O)O)O3)c2n1`: 82.5 µM and above 100 µM.
For the compound `Nc1nc(N)c2ncn(CCOCP(=O)(O)O)c2n1` [PMEDAP], the half-maximal inhibitory concentration (IC50) in the series on MT4 [3] was found to be 1 µM.
For `Nc1ncnc2c1ncn2CCOCP(=O)(O)O` [ADEFOVIR], in the series on MT4 [1] (mt4), the IC50 is 6.5 µM and 2 µM. Besides, the CC50 in series [2] came to 40 µM.
